The results in this text go back to PubChem BioAssay AID383 (SGCOxCompounds, 2006).

Structures are written as SMILES.

Chain of Dual specificity protein kinase CLK3 (Homo sapiens) (P49761 whole entry, looked up): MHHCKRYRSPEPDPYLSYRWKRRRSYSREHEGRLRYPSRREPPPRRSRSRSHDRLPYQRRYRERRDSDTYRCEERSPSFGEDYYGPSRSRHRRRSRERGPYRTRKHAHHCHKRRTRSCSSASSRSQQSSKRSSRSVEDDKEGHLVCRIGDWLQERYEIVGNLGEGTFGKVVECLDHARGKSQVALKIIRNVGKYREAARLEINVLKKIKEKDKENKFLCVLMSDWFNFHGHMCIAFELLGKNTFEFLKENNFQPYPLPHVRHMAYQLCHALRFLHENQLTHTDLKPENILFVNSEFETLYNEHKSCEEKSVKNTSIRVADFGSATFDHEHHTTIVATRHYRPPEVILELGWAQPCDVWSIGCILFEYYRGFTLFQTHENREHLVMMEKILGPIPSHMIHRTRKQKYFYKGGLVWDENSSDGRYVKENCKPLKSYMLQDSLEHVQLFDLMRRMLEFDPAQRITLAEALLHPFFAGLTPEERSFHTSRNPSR

The first test addresses Dual specificity protein kinase CLK3 (Homo sapiens) (UniProt P49761). The test can be described thus: CLK3 binders by thermal stabilization, biophysical, thermal shift, recombinant protein (AID 383). Particulars: at 10 µM, protein 1.5 µM, buffer 10 mM HEPES, pH 7.5, NaCl 150 mM, with 50 µM L-Arg/L-Glu (1:1), hits give high values.
Regarding `O=Nc1c(-c2c(O)[nH]c3ccc(I)cc23)[nH]c2ccccc12`, the Tm shift is 4.5 Celsius.

For the compound `Cc1cc(Nc2nc(-c3ccccc3)nc3ccccc23)n[nH]1`, the Tm shift was 4.1 Celsius.

On to `O=C1NC(=O)C(c2c[nH]c3ccccc23)=C1c1c[nH]c2ccccc12`, for which the Tm shift is 3.2 Celsius.

As for `N#C/C(=C1\Nc2ccccc2S1)c1ccnc(NCCc2cccnc2)n1`, the Tm shift is 4.9 Celsius.

Take `OCC(O)CCO/N=C1/C(c2c(O)[nH]c3ccccc23)=Nc2ccccc21` (stereo not drawn): the Tm shift was 4 Celsius.

`O=Nc1c(-c2c(O)[nH]c3ccc(S(O)(O)O)cc23)[nH]c2ccccc12`: the Tm shift is 4.7 Celsius.

For `Cc1[nH]c(/C=C2\C(=O)Nc3ccc(S(=O)(=O)N(C)c4cccc(Cl)c4)cc32)c(C)c1C(=O)N1CCN(C)CC1`, the Tm shift was 3.7 Celsius.

With `O=C(c1ccc(Nc2nccc(-c3cc4ccccc4s3)n2)cc1)N1CCC(N2CCCC2)CC1`, the Tm shift was 6.3 Celsius.

The test is the same for the next values; noted with them: at 10 µM, protein 1.7 µM, buffer 10 mM HEPES, pH 7.5, NaCl 150 mM, with 50 µM L-Arg/L-Glu (1:1), hits give high values.
In the case of `COc1ccc(Nc2nc(N)c(C(=O)c3ccc(Cl)cc3)s2)cc1`, the Tm shift is 3.7 Celsius.

In the case of `COc1ccc(Nc2nc(N)c(C(=O)c3ccc(OC)cc3)s2)cc1`, the Tm shift was 4.3 Celsius.

`Nc1nc(Nc2cccc(Cl)c2)sc1C(=O)c1ccc(F)cc1`: the Tm shift is 3.4 Celsius.

On to `Nc1nc(Nc2ccc(F)cc2)sc1C(=O)c1ccccc1`, for which the Tm shift is 3.2 Celsius.

The same test, now with this note: at 10 µM, protein 1.8 µM, buffer 10 mM HEPES, pH 7.5, NaCl 150 mM, with 50 µM L-Arg/L-Glu (1:1), hits give high values.
In the case of `Cn1cc(/C=C2\C(=O)Nc3ccc(S(N)(=O)=O)cc32)c2ccccc21`, the Tm shift is 3.2 Celsius.

In the case of `O=Nc1c(-c2c(O)[nH]c3ccccc23)[nH]c2ccccc12`, the Tm shift was 4.6 Celsius.

For `Cc1c2ccncc2c(C)c2c1[nH]c1ccccc12`, the Tm shift was 4.2 Celsius.

`NC1=N/C(=C2/CCNC(=O)c3[nH]c(Br)cc32)C(=O)N1`: the Tm shift is 7.2 Celsius.

Turning to `CC(C)n1cnc2c(Nc3cccc(Cl)c3)nc(NCCO)nc21`, the Tm shift was 4.6 Celsius.

Turning to `CN(C)S(O)(O)c1ccc2c(c1)/C(=C/c1cc3c([nH]1)CCCC3)C(=O)N2`, the Tm shift was 4.1 Celsius.

For `COc1cc(/C=C/C(=O)CC(=O)/C=C/c2ccc(O)c(OC)c2)ccc1O`, the Tm shift is 5.3 Celsius.

As to `O=c1cc(-c2ccc(O)cc2)oc2cc(O)cc(O)c12`, the Tm shift was 3.1 Celsius.

In the case of `CN(C)CCCn1cc(C2=C(c3c[nH]c4ccccc34)C(=O)NC2=O)c2ccccc21`, the Tm shift was 3.5 Celsius.

With `CC1N=C2SC=CN2C(=O)C1CCN1CCC(=C(c2ccccc2)c2ccc(F)cc2)CC1` (stereo not drawn), the Tm shift was 3.8 Celsius.

Turning to `Nc1ncnc2c1c(I)cn2[C@@H]1O[C@H](CO)C(O)C1O` (stereo partly drawn), the Tm shift was 7.5 Celsius.

On to `NC(=O)c1ccc(-c2nc(-c3ccc4c(c3)OCCO4)c(-c3ccccn3)[nH]2)cc1`, for which the Tm shift was 4.8 Celsius.

Still in this test, the particulars now being: at 10 µM, protein 2 µM, buffer 10 mM HEPES, NaCl 150 mM, with 50 mM Arg/Glu, hits give high values.
Regarding `CC(=O)Nc1cccc(-c2cnc3ccc(N[C@H](CO)C(C)C)nn23)c1`, the Tm shift is 4.32 Celsius.

On to `CCC(CO)Nc1ccc2ncc(-c3ccc(O)cc3)n2n1` (stereo not drawn), for which the Tm shift was 4.43 Celsius.

As for `N=C(N)SCCCn1cc(C2=C(c3c[nH]c4ccccc34)C(=O)NC2=O)c2ccccc21`, the Tm shift is 3.37 Celsius.

Regarding `NC1=N/C(=C2/CCNC(=O)c3[nH]c(Br)cc32)C(=O)N1`, the Tm shift is 8.87 Celsius.

As to `CC(C)n1cnc2c(Nc3cccc(Cl)c3)nc(NCCO)nc21`, the Tm shift is 3.76 Celsius.

For the compound `CC(=O)c1cccc(-c2cnc3ccc(N[C@H](CO)C(C)C)nn23)c1`, the Tm shift was 3.77 Celsius.

Turning to `O=c1c(O)c(-c2ccc(O)c(O)c2)oc2cc(O)cc(O)c12`, the Tm shift was 4.2 Celsius.

On to `NC1=N/C(=C2\CCNC(=O)c3[nH]ccc32)C(=O)N1`, for which the Tm shift was 4.35 Celsius.

As for `CC(C)[C@@H](CO)Nc1ccc2ncc(-c3ccc(C#N)cc3)n2n1`, the Tm shift was 4.58 Celsius.

In the case of `Nc1nc(Nc2ccc(S(N)(=O)=O)cc2)nn1C(=S)Nc1c(F)cccc1F`, the Tm shift was 15.1 Celsius.

For the compound `Nc1ncnc2c1c(I)cn2[C@@H]1O[C@H](CO)C(O)C1O` (stereo partly drawn), the Tm shift is 7.25 Celsius.

Take `CCC(CO)Nc1ccc2ncc(-c3ccc(C(=O)O)cc3)n2n1` (stereo not drawn): the Tm shift is 3.99 Celsius.

With `CC(C)C(CO)Nc1nc(Nc2cccc(Cl)c2)c2ncn(C(C)C)c2n1` (stereo not drawn), the Tm shift is 3.88 Celsius.

Still in this test, the particulars now being: at 10 µM, protein 2 µM, buffer 10 mM HEPES, pH 7.5, NaCl 150 mM, hits give high values.
Regarding `CCC(CO)Nc1ccc2ncc(-c3cccc(C(C)=O)c3)n2n1` (stereo not drawn), the Tm shift was 3.42 Celsius.

Regarding `N#Cc1ccc(-c2cnc3ccc(NC4CCOCC4)nn23)cc1`, the Tm shift was 3.76 Celsius.

Take `COc1cccc(-c2cnn3ccc(Nc4cccc(Cl)c4)nc23)c1`: the Tm shift is 4.61 Celsius.

Regarding `CCC(CO)Nc1ccc2ncc(-c3cccc(OC(F)(F)F)c3)n2n1` (stereo not drawn), the Tm shift was 3.66 Celsius.

Turning to `Nc1ccc(-c2cnn3ccc(Nc4cccc(Cl)c4)nc23)cc1`, the Tm shift is 3.58 Celsius.

`CC(C)[C@@H](CO)Nc1ccc2ncc(-c3cccc(OC(F)(F)F)c3)n2n1`: the Tm shift is 4.02 Celsius.

As for `CCC(CO)Nc1ccc2ncc(-c3ccc(OC)nc3)n2n1` (stereo not drawn), the Tm shift is 4.48 Celsius.

On to `CCC(CO)Nc1ccc2ncc(-c3ccc(F)c(Cl)c3)n2n1` (stereo not drawn), for which the Tm shift is 3.6 Celsius.

In the case of `CC(C)[C@@H](CO)Nc1ccc2ncc(-c3cccc(O)c3)n2n1`, the Tm shift was 4.02 Celsius.

In the case of `Clc1cccc(Nc2ccn3ncc(-c4ccc5c(c4)OCO5)c3n2)c1`, the Tm shift was 6.07 Celsius.

The test is the same for the next values; noted with them: at 10 µM, protein 2 µM, buffer 50 mM HEPES, pH 7.5, NaCl 500 mM, hits give high values.
On to `CCN1/C(=C/C(C)=O)Sc2ccc(OC)cc21`, for which the Tm shift is 3.16 Celsius.

For `NCCCn1cc(C2=C(c3c[nH]c4ccccc34)C(=O)NC2=O)c2ccccc21`, the Tm shift is 3.18 Celsius.

As for `O=C1C(=O)C(c2cc(O)c(O)c(O)c2)Oc2cc(O)cc(O)c21` (stereo not drawn), the Tm shift is 3.08 Celsius.

For the compound `O=c1c(O)c(-c2ccc(O)c(O)c2)oc2cc(O)cc(O)c12`, the Tm shift was 3.12 Celsius.

For `O=c1cc(-c2ccc(O)c(O)c2)oc2cc(O)cc(O)c12`, the Tm shift was 4.28 Celsius.

With `O=c1c(O)c(-c2cc(O)c(O)c(O)c2)oc2cc(O)cc(O)c12`, the Tm shift is 3.25 Celsius.
